According to BigSolDB 2.1:

O=C1NC(=O)C2C3C=CC(C3)C12 (stereo not drawn)
solubility (mole fraction)
Settings | 278.15 K | 283.15 K | 288.15 K | 293.15 K | 298.15 K | 303.15 K | 308.15 K | 313.15 K | 318.15 K | 323.15 K
in 1,4-dioxane | – | – | 0.0363 | 0.0402 | 0.0495 | 0.0576 | 0.0649 | 0.0738 | 0.0843 | 0.0962
in 2-ethoxyethanol | 0.019 | 0.0224 | 0.0255 | 0.0295 | 0.0336 | 0.0384 | 0.0442 | 0.0481 | 0.0551 | 0.0627
in DMF | 0.0637 | 0.0717 | 0.081 | 0.0915 | 0.107 | 0.116 | 0.129 | 0.145 | 0.159 | 0.177
in acetone | 0.0128 | 0.0146 | 0.0171 | 0.0196 | 0.0225 | 0.0255 | 0.029 | 0.0328 | 0.0369 | 0.0414
in ethanol | 0.00441 | 0.00512 | 0.00642 | 0.00789 | 0.00949 | 0.0115 | 0.0138 | 0.0165 | 0.0195 | 0.0233
in ethyl acetate | 0.00821 | 0.00971 | 0.0112 | 0.0128 | 0.0146 | 0.0171 | 0.0195 | 0.0223 | 0.0255 | 0.029
in isopropyl acetate | 0.0046 | 0.00565 | 0.00672 | 0.00781 | 0.00903 | 0.0105 | 0.0124 | 0.0143 | 0.0164 | 0.019
in methanol | 0.00626 | 0.00766 | 0.00855 | 0.0104 | 0.0127 | 0.0157 | 0.0182 | 0.0219 | 0.026 | 0.0308
in methyl acetate | 0.0113 | 0.0135 | 0.0159 | 0.0187 | 0.0223 | 0.0259 | 0.0303 | 0.0352 | 0.041 | 0.0474
in n-butyl acetate | 0.00431 | 0.00523 | 0.00617 | 0.00718 | 0.00869 | 0.0103 | 0.0117 | 0.0135 | 0.0156 | 0.0178
in n-propyl acetate | 0.00537 | 0.00631 | 0.00782 | 0.00907 | 0.0106 | 0.0124 | 0.0145 | 0.0168 | 0.0193 | 0.0221
